Source: ChEMBL document CHEMBL2407073, “RCAI-61 and related 6'-modified analogs of KRN7000: their synthesis and bioactivity for mouse lymphocytes to produce interferon-γ in vivo” (Bioorg Med Chem, 2013)
Active and inactive are the calls of the source.

Key:
Assay type in all cases: functional, organism-based
Mus musculus [1] = experiment: Immunostimulatory activity in C57BL/6J mouse assessed as increase in production of IL-12p70 in serum at 2 ug, iv measured at 3 to 6 hrs by cytometric bead array method
Mus musculus [2] = experiment: Immunostimulatory activity in C57BL/6J mouse assessed as increase in production of IFNgamma in serum at 2 ug, iv by ELISA
Mus musculus [3] = experiment: Immunostimulatory activity in C57BL/6J mouse assessed as increase in production of IL-4 in serum at 2 ug, iv measured at 3 hrs by cytometric bead array method
Mus musculus [4] = experiment: Immunostimulatory activity in C57BL/6J mouse assessed as increase in production of IL-4 in serum at 0.02 to 2 ug, iv measured at 3 hrs by cytometric bead array method
Mus musculus [5] = experiment: Immunostimulatory activity in iv dosed C57BL/6J mouse assessed as increase in production of IL-4 in serum measured at 3 hrs by cytometric bead array method
Mus musculus [6] = experiment: Immunostimulatory activity in C57BL/6J mouse assessed as increase in production of IFNgamma in serum at 0.02 ug, iv by ELISA

Measured: Activity

CCCCCCCCCCCCCCCCCCCCCCCCCC(=O)N[C@@H](CO[C@H]1O[C@H](CC)[C@H](O)[C@H](O)[C@H]1O)[C@H](O)[C@H](O)CCCCCCCCCCCCCC
active: Mus musculus [1] | Mus musculus [2] | Mus musculus [3]

CCCCCCCCCCCCCCCCCCCCCCCCCC(=O)N[C@@H](CO[C@H]1O[C@H](COCOC)[C@H](O)[C@H](O)[C@H]1O)[C@H](O)[C@H](O)CCCCCCCCCCCCCC
active: Mus musculus [1] | Mus musculus [2] | Mus musculus [3]

CCCCCCCCCCCCCCCCCCCCCCCCCC(=O)N[C@@H](CO[C@H]1O[C@H](CO)[C@H](O)[C@H](O)[C@H]1O)[C@H](O)[C@H](O)CCCCCCCCCCCCCC
active: Mus musculus [1] | Mus musculus [4] | Mus musculus [2] | Mus musculus [3]

CCCCCCCCCCCCCCCCCCCCCCCCCC(=O)N[C@@H](CO[C@H]1O[C@H](COCCO)[C@H](O)[C@H](O)[C@H]1O)[C@H](O)[C@H](O)CCCCCCCCCCCCCC
active: Mus musculus [1] | Mus musculus [2] | Mus musculus [3]

CCCCCCCCCCCCCCCCCCCCCCCCCC(=O)N[C@@H](CO[C@H]1O[C@H](COCCC)[C@H](O)[C@H](O)[C@H]1O)[C@H](O)[C@H](O)CCCCCCCCCCCCCC
active: Mus musculus [1] | Mus musculus [2] | Mus musculus [3]

CCCCCCCCCCCCCCCCCCCCCCCCCC(=O)N[C@@H](CO[C@H]1O[C@H](C)[C@H](O)[C@H](O)[C@H]1O)[C@H](O)[C@H](O)CCCCCCCCCCCCCC
active: Mus musculus [1] | Mus musculus [2] | Mus musculus [3]

CCCCCCCCCCCCCCCCCCCCCCCCCC(=O)N[C@@H](CO[C@H]1OC[C@H](O)[C@H](O)[C@H]1O)[C@H](O)[C@H](O)CCCCCCCCCCCCCC
active: Mus musculus [1] | Mus musculus [2] | Mus musculus [3]

CCCCCCCCCCCCCCCCCCCCCCCCCC(=O)N[C@@H](CO[C@H]1O[C@H](CF)[C@H](O)[C@H](O)[C@H]1O)[C@H](O)[C@H](O)CCCCCCCCCCCCCC
active: Mus musculus [1] | Mus musculus [2] | Mus musculus [3]

CCCCCCCCCCCCCCCCCCCCCCCCCC(=O)N[C@@H](CO[C@H]1O[C@H](COCOCCOC)[C@H](O)[C@H](O)[C@H]1O)[C@H](O)[C@H](O)CCCCCCCCCCCCCC
active: Mus musculus [1] | Mus musculus [2] | Mus musculus [3]

CCCCCCCCCCCCCCCCCCCCCCCCCC(=O)N[C@@H](CO[C@H]1O[C@H](COCC)[C@H](O)[C@H](O)[C@H]1O)[C@H](O)[C@H](O)CCCCCCCCCCCCCC
active: Mus musculus [1] | Mus musculus [2] | Mus musculus [3]

CCCCCCCCCCCCCCCCCCCCCCCCCC(=O)N[C@@H](CO[C@H]1O[C@H](COC)[C@H](O)[C@H](O)[C@H]1O)[C@H](O)[C@H](O)CCCCCCCCCCCCCC
active: Mus musculus [5] Dose-dependent effect | Mus musculus [1] | Mus musculus [2] | Mus musculus [3] | Mus musculus [6]
